Patent US20040152769A1, “Modified carbamate-containing prodrugs and methods of synthesizing same” (priority 2002, published 2004)
≈ marks a conversion by molar mass, not a printed value. Like-named read-outs stand apart in the source and are kept apart here. Blank lines part the entries; values can stand above or below the compound they belong to.

How the values were obtained:
[1] = pH 2.0 stability of prodrugs of the native compound (0.06M phosphate buffer, 37° C., 2 hours, RP-HPLC); conditions: for pH 2 Stability: pH 2.0 phosphate buffer, 37° C.; for % Area of Pro-drug / % Area NC: pH 2.0, 37° C., 2 hours, RP-HPLC; for % Area NC: native compound formed
Method: The samples were incubated in a water bath at 37° C. for 2 hours. Each sample was then removed from the water bath and vortexed.

[2] = Solubility of Dilantin®-PEG3 conjugate in acetonitrile and deionized water (HPLC); format: physicochemical
Method: 5,5-diphenylhydrantoin and Dilantin®-PEG3 conjugate prodrug solutions were made in acetonitrile with concentrations of 1.12 mg/mL and 0.8 mg/mL, respectively.
Solutions of 5,5-diphenylhydrantoin and Dilantin®-PEG3 conjugate were then made in deionized water at concentrations of 0.99 mg/mL and 0.93 mg/mL, respectively. These solutions were mixed well by vortexing. 1 mL aliquots were taken and spun by centrifuge at 5000 rpm for five minutes. The resultant supemant was taken and analyzed by HPLC for solution concentration. The concentration of 5,5-diphenylhydrantoin was 4 μg/mL. The concentration of Dilantin®-PEG3 conjugate was 160 μg/mL.

[3] = Oral absorption in rats, parent compound in plasma by LC/MS/MS; conditions: rat, p.o., result in words; for Oral Absorption: first part of Table 2
Method: 100 μL of plasma was extracted with 500 μL of acetonitrile, vortexed and centrifuged. The supernatant was removed, evaporated to dryness, and then reconstituted with 100 μL of 30% methanol. The reconstituted samples were then centrifuged to remove particulates. The supernatant was removed and transferred to HPLC vials for detection and quantitation of the parent compound by LC/MS/MS.

[4] = Rat plasma stability of selected prodrugs (37° C., RP-HPLC); format: in vitro ADME; conditions: for % comp. 0′ / % comp. 60′ / % comp. 120′ / % comp. 240′ / % comp. 360′ / % comp. 480′: 37° C., peak area; for % comp. 0′: 0 minutes; for % comp. 60′: 60 minutes; for % comp. 120′: 120 minutes; for % comp. 240′: 240 minutes; for % comp. 360′: 360 minutes; for % comp. 480′: 480 minutes
Method: Using 1 mg/mL stock solutions of a prodrug described in Example 6.8 above in acetonitrile, 990 μL of rat plasma was spiked with 10 μL of conjugate. The plasma spikes were incubated at 37° C. 100 μL of each sample at each time-point was removed and the reaction was quenched with 500 μL of acetonitrile. Each sample was vortexed and centrifuged immediately and the resultant supernatant was removed, discarding the pellet. The supernatant was concentrated and reconstituted with 100 μL of 30% acetonitrile. Prior to transferring samples to HPLC vials, the samples were centrifuged for 15 minutes at 14000 rpm at 2° C. to remove particulates. 10 μL of 10 μg/mL standard and 75 μL of reconstituted sample were injected for RP-HPLC analysis.
The stability of the prodrugs was measured by analyzing samples at the following time-points: 0, 60, 120, 240, 360, and 480 minutes. Retention time, peak area, and UV spectrum were measured for each sample and standard. […] A Waters 2690 HPLC was used for sample analysis (column: Delta Pak C18 Guard Column, C18, 5 m, 2.1 mm×50 mm; Collected spectrum: 210-380 nm. Extracted chromatogram: 240 nm; Mobile Phase; 0.1% TFA in Water/0.1% TFA in acetonitrile; flow Rate: 0.5 mL/minute).

[5] = Chemical hydrolysis of Dilantin®-conjugate (PEG-3) at a pH of about 2; format: physicochemical; conditions: 0.06M phosphate buffer pH 2.0, 37° C.
Method: Aliquots of a stock solution of Dilantin®-PEG3 conjugate in acetonitrile were spiked into 0.06M phosphate buffer, pH 2.0 (2 μl stock solution in 998 μl buffer). The sample was incubated in a water bath at 37° C. At time points one hour apart, a portion of the sample was removed and submitted for immediate analysis by RP-HPLC.

[6] = Stability of Dilantin®-PEG3 conjugate in rat plasma (spike controls, RP-HPLC); format: in vitro ADME
Method: Also using a stock solution of Dilantin®-PEG3 conjugate in acetonitrile, the following spike controls were prepared in rat plasma: 1 μg/ml, 750 ng/ml, 500 ng/ml and 250 ng/ml. After vortexing, […] of acetonitrile was added. Each sample was centrifuged immediately and the resultant supernatant was removed and the pellet discarded. The supernatant was concentrated and reconstituted with […] of 30% acetonitrile. […] Samples were submitted for RP-HPLC anaylsis. […] Thus, near complete plasma hydrolysis of the conjugate may occur within 1 minute. Studies were repeated a second day to confirm results.

Structure (SMILES): COC(=O)C1=C(C)NC(C)=C(C(=O)OC)C1c1cccc(N(C(=O)NCCCN2CCC(c3cccc(OC)c3)CC2)C(=O)OC)c1.Cl [Compound 11]
pH 2 Stability [1]: >2 h

pH 2 Stability [1]: None
Structure (SMILES): CCOC(=O)OCCOCCOCCOC [Compound 5]

solubility in acetonitrile [2]: 100% | solubility ([2]; water, thermodynamic from solid): 4 µg/mL (≈ 15.9 µM)
Structure (SMILES): O=C1NC(=O)C(c2ccccc2)(c2ccccc2)N1 [5,5-diphenylhydrantoin, reference compound]

pH 2 Stability [1]: None
Structure (SMILES): CCOC(=O)COCCOCCOC [Compound 4]

Structure (SMILES): COC(=O)C1=C(C)NC(C)=C(C(=O)OC)C1c1cccc(N(C(=O)NCCCN2CCC(c3cccc(OC)c3)CC2)C(=O)OC(CO)CO)c1.Cl [Compound 16]
Oral Absorption (Relative AUCs) ([3]; second part of Table 2): Minimal | % comp. 0′ ([4]; rat plasma): 0% | % comp. 60′ ([4]; rat plasma): 0% | % comp. 120′ ([4]; rat plasma): 0% | % comp. 240′ ([4]; rat plasma): 1% | % comp. 360′ ([4]; rat plasma): 1% | % comp. 480′ ([4]; rat plasma): 1% | stability in rat plasma ([4]; rat plasma, result in words): unstable | prodrug converted to the native compound ([4]; within 30 seconds of being introduced to rat plasma): ~100%

pH 2 Stability: >2 h
Structure (SMILES): COC(=O)C1=C(C)NC(C)=C(C(=O)OC)C1c1cccc(NC(=O)NCCCN2CCC(c3cccc(OC)c3)CC2)c1 [Native drug, 1,4-Dihydro-[3-[[[[3-[4-(3-methoxyphenyl)-1-piperidinyl]propyl]amino]carbonyl]amino]phenyl]-2,6-dimethyl-3,5-pyridinedicarboxylic acid, dimethyl ester]

pH 2 Stability [1]: None
Structure (SMILES): CCOC(=O)CCOCCOCCOCCOCCOCCOCCOCCOCCOC [Compound 3]

Structure (SMILES): COCCOCCOCCOCCOCCOCCOCCOCCOC(=O)N(C(=O)NCCCN1CCC(c2cccc(OC)c2)CC1)c1cccc(C2C(C(=O)OC)=C(C)NC(C)=C2C(=O)OC)c1 [Compound 8]
Oral Absorption [3]: Not Detected | pH 2 Stability [1]: >2 h

pH 2 Stability [1]: None
Structure (SMILES): CCOCCOCCOCCC(=O)OCC [Compound 2]

Structure (SMILES): COCCOCCOCCOC(=O)N(C(=O)NCCCN1CCC(c2cccc(OC)c2)CC1)c1cccc(C2C(C(=O)OC)=C(C)NC(C)=C2C(=O)OC)c1.Cl [Compound 13]
% comp. 0′ ([4]; rat plasma): 99.0% | % comp. 60′ ([4]; rat plasma): 98.0% | % comp. 120′ ([4]; rat plasma): 98.0% | % comp. 240′ ([4]; rat plasma): 97.0% | % comp. 360′ ([4]; rat plasma): 96.0% | % comp. 480′ ([4]; rat plasma): 95.0% | % Area of Pro-drug [1]: 100% | % Area NC [1]: 0% | pH 2 Stability [1]: >2 h

pH 2 Stability [1]: None
Structure (SMILES): CCOC(=O)CCOCCOCCOC [Compound 1]

Structure (SMILES): COCCOCCOCCOCCOC(=O)N(C(=O)NCCCN1CCC(c2cccc(OC)c2)CC1)c1cccc(C2C(C(=O)OC)=C(C)NC(C)=C2C(=O)OC)c1.Cl [Compound 17]
% comp. 0′ ([4]; rat plasma): 99.7% | % comp. 60′ ([4]; rat plasma): 99.0% | % comp. 120′ ([4]; rat plasma): 98.5% | % comp. 240′ ([4]; rat plasma): 98.0% | % comp. 360′ ([4]; rat plasma): 97.0% | % comp. 480′ ([4]; rat plasma): 96.0% | % Area of Pro-drug [1]: 100% | % Area NC [1]: 0% | pH 2 Stability [1]: >2 h

Structure (SMILES): COCCOCCOC(=O)N(C(=O)NCCCN1CCC(c2cccc(OC)c2)CC1)c1cccc(C2C(C(=O)OC)=C(C)NC(C)=C2C(=O)OC)c1.Cl [Compound 21]
% Area of Pro-drug [1]: 100% | % Area NC [1]: 0% | pH 2 Stability [1]: >2 h

Structure (SMILES): CCOC(=O)N(C(=O)NCCCN1CCC(c2cccc(OC)c2)CC1)c1cccc(C2C(C(=O)OC)=C(C)NC(C)=C2C(=O)OC)c1.Cl [Compound 14]
% comp. 0′ ([4]; rat plasma): 98.0% | % comp. 60′ ([4]; rat plasma): 98.0% | % comp. 120′ ([4]; rat plasma): 97.5% | % comp. 240′ ([4]; rat plasma): 96.5% | % comp. 360′ ([4]; rat plasma): 96.0% | % comp. 480′ ([4]; rat plasma): 95.0% | pH 2 Stability [1]: >2 h

Dilantin ® -PEG3 (Remaining), % ([5]; time 0 hours): 100% | Dilantin ® -PEG3 (Remaining), % ([5]; time 2 hours): 96.79% | Dilantin ® -PEG3 (Remaining), % ([5]; time 3 hours): 94.99% | time to near complete plasma hydrolysis of the conjugate ([6]; rat plasma): ≤ 1 min | species found in extracted rat plasma samples ([6]; rat plasma spiked at 1 μg/ml, 750, 500 and 250 ng/ml, RP-HPLC): only the presence of phenyloin | solubility in acetonitrile ([2]; acetonitrile, 1.12 mg/mL (5,5-diphenylhydrantoin) and 0.8 mg/mL (conjugate)): 100% | concentration in supernatant (solubility in water) ([2]; deionized water, made at 0.99 mg/mL and 0.93 mg/mL, centrifuged, HPLC): 160 µg/mL
Structure (SMILES): COCCOCCOCCOC(=O)N1C(=O)NC(c2ccccc2)(c2ccccc2)C1=O [Dilantin®-PEG3 conjugate]
solubility in water compared with native drug ([2]; deionized water): more soluble in water than the native drug

Structure (SMILES): COCCOCCOCCOC(=O)N(C(=O)NCCCN1CCC(c2cccc(OC)c2)CC1)c1cccc(C2C(C(=O)OC)=C(C)NC(C)=C2C(=O)OC)c1 [Compound 6]
Oral Absorption [3]: Not Detected | pH 2 Stability [1]: >2 h

Structure (SMILES): COCCOC(=O)N(C(=O)NCCCN1CCC(c2cccc(OC)c2)CC1)c1cccc(C2C(C(=O)OC)=C(C)NC(C)=C2C(=O)OC)c1.Cl [Compound 22]
% Area of Pro-drug [1]: 100% | % Area NC [1]: 0% | pH 2 Stability [1]: >2 h

Structure (SMILES): COCCOCCOCCOCCOCCOCCOCCOCCOC(=O)N(C(=O)NCCCN1CCC(c2cccc(OC)c2)CC1)c1cccc(C2C(C(=O)OC)=C(C)NC(C)=C2C(=O)OC)c1.Cl [Compound 19]
% comp. 0′ ([4]; rat plasma): 97.0% | % comp. 60′ ([4]; rat plasma): 97.0% | % comp. 120′ ([4]; rat plasma): 96.5% | % comp. 240′ ([4]; rat plasma): 96.0% | % comp. 360′ ([4]; rat plasma): 95.3% | % comp. 480′ ([4]; rat plasma): 94.0% | pH 2 Stability [1]: >2 h
